Experimental data: ChEMBL document CHEMBL4229359, “Simple 2(5H)-furanone derivatives with selective cytotoxicity towards non-small cell lung cancer cell line A549 - Synthesis, structure-activity relationship and biological evaluation” (Eur J Med Chem, 2018)

What was measured:
A549 [1] = test: Cytotoxicity against human A549 cells assessed as reduction in cell viability after 72 hrs by MTT assay; assay type: functional, cell-based; settings: A549, 72 h
[2] = Selectivity index, ratio of IC50 for human BEAS2B cells to IC50 for human A549 cells; assay type: toxicity
BEAS-2B = test: Cytotoxicity against human BEAS2B cells assessed as reduction in cell viability after 72 hrs by MTT assay; assay type: cell-based
A549 [3] = test: Cell cycle arrest in human A549 cells assessed as accumulation at S-phase at 10 uM after 72 hrs by propidium iodide staining based flow cytometry (reference value: 16.8 to 18.5%); assay type: functional
A549 [4] = test: Cell cycle arrest in human A549 cells assessed as accumulation at G2/M-phase at 10 uM after 72 hrs by propidium iodide staining based flow cytometry (reference value: 6.3 to 7.2%); assay type: functional
A549 [5] = test: Anticlonogenic activity against human A549 cells at 10 uM after 72 hrs by crystal violet staining based microscopic method relative to control; assay type: functional
A549 [6] = test: Cell cycle arrest in human A549 cells assessed as accumulation at G1-phase at 10 uM after 72 hrs by propidium iodide staining based flow cytometry (reference value: 75.2 to 76%); assay type: functional

Compound	IC50 (A549 [1]) [µM]	log(RatioIC50) [2]	IC50 (BEAS-2B) [µM]	Activity (A549 [3]) [%]	Activity (A549 [4]) [%]	Activity (A549 [5]) [%]	Activity (A549 [6]) [%]
COC1OC(=O)C(Cl)=C1Cl (stereo unspecified)	5.1	0.05	4.6				
CCCCOC1OC(=O)C(Cl)=C1Cl (stereo unspecified)	22.5	0	22.3				
CC(C)(C)COC1OC(=O)C(Cl)=C1Nc1ccc(Br)cc1 (stereo unspecified)	28	0.23	30.9				
CC(C)OC1OC(=O)C(Cl)=C1Nc1ccccc1 (stereo unspecified)	> 400		> 400				
CC(C)(C)COC1OC(=O)C(Cl)=C1N1CCCCC1 (stereo unspecified)	> 400		> 400				
CCCCOC1OC(=O)C(Cl)=C1Nc1ccc(Br)cc1 (stereo unspecified)	46.5	-0.04	42.7				
CC(C)OC1OC(=O)C(Cl)=C1Nc1ccc(F)cc1 (stereo unspecified)	186		> 400				
CC(C)(C)COC1OC(=O)C(Cl)=C1Nc1ccc(F)cc1 (stereo unspecified)	26.7	0.25	47.6				
C#Cc1cccc(Nc2ncnc3cc(OCCOC)c(OCCOC)cc23)c1 [ERLOTINIB]				18.5	6	75	74.5
CCCCOC1OC(=O)C(Cl)=C1Nc1ccccc1 (stereo unspecified)	175	0.07	206				
CC(C)OC1OC(=O)C(Cl)=C1Nc1ccc(Cl)cc1 (stereo unspecified)	39.6	0.29	77				
